Earlier results in patent publication US20200276090A1, “TOPICAL PRODUCTS WITH A BIPHASIC SYSTEM” (CMED AESTHETICS s.r.l., priority 2017, published 2020).
Read-outs that look alike come from different tables or passages of the source.

Details: after 90 days

## O=C(O)C(Cl)(Cl)Cl [TCA, trichloroacetic acid]
TCA in aqueous solution alone
  Degradation of TCA: 12.6%
In the presence of a high percentage of stabilizing agents, on average
  Degradation of TCA: 2-3%
In the presence of a low percentage of stabilizing agents, on average
  Degradation of TCA: 4-5%
